Laboratory results reported in ChEMBL document CHEMBL5465560, “Selectivity Literature for EUbOPEN Chemogenomic Library” (2024).

Key:
[1] = molecular target: Tyrosine-protein kinase Yes (Homo sapiens) (UniProt P07947); assay: Selectivity interaction (KinomeScan (DiscoverX)) EUB0001619a YES1; details: at 1 µM
[2] = molecular target: Cyclin-dependent kinase 2 (Homo sapiens, UniProt P24941); assay: Selectivity interaction (ActivX KiNativ screen (kinase selectivity in THP-1 cell lysates)) EUB0000639a CDK2; type: subcellular; details: lysate, at 1 µM
[3] = molecular target: T1, TGF-beta receptor type-1 (Homo sapiens) (UniProt P36897); details: at 10 µM
T1 sequence (whole entry): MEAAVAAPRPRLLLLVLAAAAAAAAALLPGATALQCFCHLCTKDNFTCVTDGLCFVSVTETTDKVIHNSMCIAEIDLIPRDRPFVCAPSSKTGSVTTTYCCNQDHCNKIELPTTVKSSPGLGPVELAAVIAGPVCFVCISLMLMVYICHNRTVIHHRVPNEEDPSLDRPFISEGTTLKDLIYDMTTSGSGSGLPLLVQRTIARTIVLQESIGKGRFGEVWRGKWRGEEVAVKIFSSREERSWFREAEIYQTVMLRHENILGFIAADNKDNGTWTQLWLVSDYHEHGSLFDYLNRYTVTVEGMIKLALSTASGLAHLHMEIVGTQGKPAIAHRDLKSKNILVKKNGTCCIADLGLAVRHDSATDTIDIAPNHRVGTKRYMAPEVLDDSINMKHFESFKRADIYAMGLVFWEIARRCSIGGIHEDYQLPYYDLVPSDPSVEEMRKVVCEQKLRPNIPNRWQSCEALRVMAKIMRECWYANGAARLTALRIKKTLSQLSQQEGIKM

[4] = molecular target: T2, Serine/threonine-protein kinase tousled-like 1 (Homo sapiens) (UniProt Q9UKI8); assay: Selectivity interaction (KinomeScan (DiscoverX)) EUB0000092b TLK1; details: at 10 µM
T2 sequence (whole entry): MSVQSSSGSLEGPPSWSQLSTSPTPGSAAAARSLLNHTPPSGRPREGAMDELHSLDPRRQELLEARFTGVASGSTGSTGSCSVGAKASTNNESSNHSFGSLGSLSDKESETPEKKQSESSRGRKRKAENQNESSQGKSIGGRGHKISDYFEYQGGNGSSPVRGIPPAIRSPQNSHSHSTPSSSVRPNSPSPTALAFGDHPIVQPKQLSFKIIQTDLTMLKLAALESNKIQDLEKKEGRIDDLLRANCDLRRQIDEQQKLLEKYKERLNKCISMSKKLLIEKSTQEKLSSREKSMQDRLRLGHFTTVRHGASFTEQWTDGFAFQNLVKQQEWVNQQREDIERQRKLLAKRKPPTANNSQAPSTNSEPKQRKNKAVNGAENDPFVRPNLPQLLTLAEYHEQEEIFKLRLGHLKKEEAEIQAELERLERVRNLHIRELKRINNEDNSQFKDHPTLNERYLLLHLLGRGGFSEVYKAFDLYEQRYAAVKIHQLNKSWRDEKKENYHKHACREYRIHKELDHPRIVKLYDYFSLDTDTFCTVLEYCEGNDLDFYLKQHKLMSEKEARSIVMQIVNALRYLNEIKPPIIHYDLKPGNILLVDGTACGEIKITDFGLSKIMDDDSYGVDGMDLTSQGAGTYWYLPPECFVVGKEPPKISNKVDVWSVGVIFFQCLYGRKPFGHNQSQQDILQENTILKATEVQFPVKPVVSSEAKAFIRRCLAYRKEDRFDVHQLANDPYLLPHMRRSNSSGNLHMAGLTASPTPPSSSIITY

[5] = molecular target: T3, Phosphatidylinositol 5-phosphate 4-kinase type-2 gamma (Homo sapiens) (UniProt Q8TBX8); assay: Selectivity interaction (Ambit KINOMEscan and KiNATiv profiling in Jurkat cells) EUB0000090b PIP4K2C; type: cell-based; details: at 1 µM
T3 sequence (whole entry): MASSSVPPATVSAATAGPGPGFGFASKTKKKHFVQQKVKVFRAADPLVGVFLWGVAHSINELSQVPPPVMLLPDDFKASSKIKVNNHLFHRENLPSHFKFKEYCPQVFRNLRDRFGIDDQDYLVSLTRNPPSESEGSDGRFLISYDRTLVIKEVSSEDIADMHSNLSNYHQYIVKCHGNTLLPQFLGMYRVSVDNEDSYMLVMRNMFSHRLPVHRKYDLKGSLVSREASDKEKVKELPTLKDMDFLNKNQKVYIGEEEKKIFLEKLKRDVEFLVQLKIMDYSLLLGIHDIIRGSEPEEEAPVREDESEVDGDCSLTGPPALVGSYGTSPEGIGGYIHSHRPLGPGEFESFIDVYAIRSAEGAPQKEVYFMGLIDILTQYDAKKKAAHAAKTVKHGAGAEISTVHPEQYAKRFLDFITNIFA

[6] = molecular target: Ribosomal protein S6 kinase alpha-3 (Homo sapiens, UniProt P51812); assay: Selectivity interaction (Ambit KINOMEscan and KiNATiv profiling in Jurkat cells) EUB0000090b RPS6KA3; type: cell-based; details: at 1 µM
Ribosomal protein S6 kinase alpha-3, sequence (P51812 whole entry): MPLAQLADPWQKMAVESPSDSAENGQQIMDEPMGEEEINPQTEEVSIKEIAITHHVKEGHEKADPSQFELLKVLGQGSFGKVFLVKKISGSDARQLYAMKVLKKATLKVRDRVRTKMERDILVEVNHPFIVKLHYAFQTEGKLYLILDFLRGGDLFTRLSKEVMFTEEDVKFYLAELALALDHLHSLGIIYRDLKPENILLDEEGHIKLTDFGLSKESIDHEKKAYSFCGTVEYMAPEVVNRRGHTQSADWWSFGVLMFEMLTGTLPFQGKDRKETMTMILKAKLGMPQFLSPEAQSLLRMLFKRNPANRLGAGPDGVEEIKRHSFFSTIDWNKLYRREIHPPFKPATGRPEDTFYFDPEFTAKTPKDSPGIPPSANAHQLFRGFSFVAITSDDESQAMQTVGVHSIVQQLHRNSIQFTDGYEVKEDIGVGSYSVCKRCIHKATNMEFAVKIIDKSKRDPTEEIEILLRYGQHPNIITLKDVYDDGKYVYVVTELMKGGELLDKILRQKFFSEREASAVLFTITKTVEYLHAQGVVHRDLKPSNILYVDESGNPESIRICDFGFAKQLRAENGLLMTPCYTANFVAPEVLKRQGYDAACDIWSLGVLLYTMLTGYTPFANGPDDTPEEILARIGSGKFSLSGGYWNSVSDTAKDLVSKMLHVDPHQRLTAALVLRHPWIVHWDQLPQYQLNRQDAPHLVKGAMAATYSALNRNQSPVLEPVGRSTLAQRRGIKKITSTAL

Tyrosine-protein kinase Yes (Homo sapiens), sequence (P07947 2-543 limits assumed): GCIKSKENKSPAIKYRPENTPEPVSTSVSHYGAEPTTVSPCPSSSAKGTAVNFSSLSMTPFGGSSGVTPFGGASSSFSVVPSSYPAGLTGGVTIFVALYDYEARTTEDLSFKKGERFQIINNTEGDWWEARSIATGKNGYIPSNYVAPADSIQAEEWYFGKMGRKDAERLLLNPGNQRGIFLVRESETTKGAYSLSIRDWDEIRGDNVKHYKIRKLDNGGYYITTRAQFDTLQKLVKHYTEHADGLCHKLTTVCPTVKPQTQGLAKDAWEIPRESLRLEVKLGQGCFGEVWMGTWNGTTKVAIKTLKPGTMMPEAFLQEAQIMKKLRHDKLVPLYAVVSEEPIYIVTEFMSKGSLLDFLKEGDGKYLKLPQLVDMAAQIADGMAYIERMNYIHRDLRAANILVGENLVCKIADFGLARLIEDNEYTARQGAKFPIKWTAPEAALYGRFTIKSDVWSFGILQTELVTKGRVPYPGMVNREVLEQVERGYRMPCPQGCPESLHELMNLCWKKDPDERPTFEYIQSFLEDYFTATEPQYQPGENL

N#Cc1cccc(-c2c[nH]c3ncnc(N4CCOCC4)c23)c1
% of control [1]: 95%

CC[C@@H]1[C@H](F)C(=O)N[C@@H]1COc1nccc2cc(C(N)=O)c(OC)cc12 [ZIMLOVISERTIB]
% of inhibition [2]: -10.5%

CCN(CC)CCCCNc1ncc2cc(-c3cc(OC)cc(OC)c3)c(NC(=O)NC(C)(C)C)nc2n1
% of control [3]: 100%

CCC(=O)N1CCN(c2ccc(-n3c(=O)ccc4cnc5ccc(-c6cnc7ccccc7c6)cc5c43)cc2C(F)(F)F)CC1
% of control [4]: 100%

CN(C)C/C=C/C(=O)Nc1ccc(C(=O)N2CCCC(Nc3ncc(Cl)c(-c4c[nH]c5ccccc45)n3)C2)cc1 (stereo unspecified)
% of control [5]: 91% | % of control [6]: 5%
